# Where a name gives a salt, the structure may show the parent alone.
# Legend:
# [1] = test system: ENR+CD organoids (ISC to Paneth cell differentiation); assay: Primary screen: basal (non-stimulated) lysozyme secretion LYZ.NS, 2.5-D 384-well ENR+CD organoid differentiation; format: cell-based, mouse; conditions: primary screen; for Z.LYZ.NS: standard z score; for Dose.FC.LYZ.NS: FC vs plate median
# From the text: (§1) High-throughput screening.
# [2] = test system: ENR+CD organoids (ISC to Paneth cell differentiation); assay: Primary screen: CCh-stimulated lysozyme secretion LYZ.S, 2.5-D 384-well ENR+CD organoid differentiation; format: cell-based, mouse; conditions: primary screen, FC vs plate median
# From the text: as §1
# [3] = test system: ENR+CD organoids; assay: Primary screen: ATP (CellTiter-Glo 3D, CTG) cell number/viability, 2.5-D 384-well ENR+CD organoids; conditions: primary screen; for Z.CTG: standard z score; for Dose.FC.CTG: FC vs plate median;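 as to all read-outs here: compounds given at plating and again on day 3 over a 6-day differentiation from ENR+CV stem-cell-enriched precursors, ATP measured on day 6, plate median as control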
Compound,Z.LYZ.NS ([1]; dose 0.08 uM),Z.LYZ.NS ([1]; dose 0.40 uM),Z.LYZ.NS ([1]; dose 2.00 uM),Z.LYZ.NS ([1]; dose 10.00 uM),Dose.FC.LYZ.NS ([1]; dose 0.08 uM),Dose.FC.LYZ.NS ([1]; dose 0.40 uM),Dose.FC.LYZ.NS ([1]; dose 2.00 uM),Dose.FC.LYZ.NS ([1]; dose 10.00 uM),Dose.FC.LYZ.S ([2]; dose 0.08 uM),Dose.FC.LYZ.S ([2]; dose 0.40 uM),Dose.FC.LYZ.S ([2]; dose 2.00 uM),Dose.FC.LYZ.S ([2]; dose 10.00 uM),Z.CTG ([3]; dose 0.08 uM),Z.CTG ([3]; dose 0.40 uM),Z.CTG ([3]; dose 2.00 uM),Z.CTG ([3]; dose 10.00 uM),Dose.FC.CTG ([3]; dose 0.08 uM),Dose.FC.CTG ([3]; dose 0.40 uM),Dose.FC.CTG ([3]; dose 2.00 uM),Dose.FC.CTG ([3]; dose 10.00 uM)
O=c1cc(N2CCOCC2)oc2c1ccc1ccccc12 [NU7026],0.198,0.198,−0.507,−1.380,0.023 log2 fold change,0.023 log2 fold change,−0.058 log2 fold change,−0.158 log2 fold change,0.021 log2 fold change,0.034 log2 fold change,−0.056 log2 fold change,−0.198 log2 fold change,0.230,0.248,0.255,−0.284,0.096 log2 fold change,0.104 log2 fold change,0.107 log2 fold change,−0.119 log2 fold change
Nc1ncnc2c1c(-c1cccc(OCc3ccccc3)c1)cn2C1CC(CN2CCCC2)C1 (stereo not drawn) [NVP-ADW742],1.239,1.499,−0.823,−1.172,0.142 log2 fold change,0.172 log2 fold change,−0.095 log2 fold change,−0.135 log2 fold change,0.245 log2 fold change,0.265 log2 fold change,−0.166 log2 fold change,−0.210 log2 fold change,1.622,1.583,0.614,−1.112,0.679 log2 fold change,0.663 log2 fold change,0.257 log2 fold change,−0.465 log2 fold change
COc1ccccc1N1CCN(CC(O)COc2cccc3ccccc23)CC1 (stereo not drawn) [Naftopidil],−0.325,−0.713,−0.171,−0.638,−0.037 log2 fold change,−0.082 log2 fold change,−0.020 log2 fold change,−0.073 log2 fold change,0.015 log2 fold change,−0.128 log2 fold change,−0.097 log2 fold change,−0.079 log2 fold change,,,,,−0.039 log2 fold change,−0.161 log2 fold change,−0.179 log2 fold change,−0.132 log2 fold change
O=C1CC[C@@]2(O)[C@H]3Cc4ccc(O)c5c4[C@@]2(CCN3CC2CC2)[C@H]1O5 [Naltrexone HCl],−0.067,−0.043,0.166,0.302,−0.008 log2 fold change,−0.005 log2 fold change,0.019 log2 fold change,0.035 log2 fold change,0.002 log2 fold change,0.025 log2 fold change,0.025 log2 fold change,0.045 log2 fold change,,,,,0.089 log2 fold change,0.070 log2 fold change,0.004 log2 fold change,
COc1ccc2cc([C@H](C)C(=O)O)ccc2c1 [Naproxen],1.226,0.930,−0.698,−1.064,0.141 log2 fold change,0.107 log2 fold change,−0.080 log2 fold change,−0.122 log2 fold change,0.067 log2 fold change,0.057 log2 fold change,−0.215 log2 fold change,−0.215 log2 fold change,,,,,−0.098 log2 fold change,−0.068 log2 fold change,−0.588 log2 fold change,−1.282 log2 fold change
OC(CNCC(O)C1CCc2cc(F)ccc2O1)C1CCc2cc(F)ccc2O1 (stereo not drawn) [Nebivolol],1.525,2.776,0.960,0.836,0.175 log2 fold change,0.319 log2 fold change,0.110 log2 fold change,0.096 log2 fold change,0.194 log2 fold change,0.282 log2 fold change,0.069 log2 fold change,0.105 log2 fold change,,,,,0.388 log2 fold change,0.220 log2 fold change,0.312 log2 fold change,0.209 log2 fold change
CN1C(=O)C(Cc2c[nH]c3ccccc23)NC1=S (stereo not drawn) [Necrostatin-1],0.524,0.174,1.338,0.496,0.060 log2 fold change,0.020 log2 fold change,0.154 log2 fold change,0.057 log2 fold change,0.077 log2 fold change,0.038 log2 fold change,0.092 log2 fold change,0.229 log2 fold change,0.244,0.401,0.027,0.328,0.102 log2 fold change,0.168 log2 fold change,0.011 log2 fold change,0.137 log2 fold change
COC(=O)C1=C(C#N)NC(C)=C(C(=O)OC(C)C)C1c1cccc([N+](=O)[O-])c1 (stereo not drawn) [Nilvadipine],0.857,0.034,0.500,0.082,0.098 log2 fold change,0.004 log2 fold change,0.057 log2 fold change,0.009 log2 fold change,0.088 log2 fold change,0.013 log2 fold change,0.071 log2 fold change,−0.008 log2 fold change,,,,,0.206 log2 fold change,0.135 log2 fold change,0.212 log2 fold change,0.192 log2 fold change
Cc1c(Cc2ccc3ccccc3n2)c2cc(F)ccc2n1CC(=O)O [OC000459],0.416,0.461,0.507,0.287,0.048 log2 fold change,0.053 log2 fold change,0.058 log2 fold change,0.033 log2 fold change,0.090 log2 fold change,0.199 log2 fold change,0.130 log2 fold change,0.051 log2 fold change,,,,,0.077 log2 fold change,−0.065 log2 fold change,0.088 log2 fold change,0.088 log2 fold change
C#Cc1cccc(Nc2ncnc3cc(OCCOC)c(OCCO)cc23)c1 [OSI-420],1.002,−1.948,−2.498,−2.833,0.115 log2 fold change,−0.224 log2 fold change,−0.287 log2 fold change,−0.325 log2 fold change,0.059 log2 fold change,−0.221 log2 fold change,−0.381 log2 fold change,−0.374 log2 fold change,0.254,−0.311,−3.016,−2.627,0.106 log2 fold change,−0.130 log2 fold change,−1.263 log2 fold change,−1.100 log2 fold change
C[C@]1(O)C[C@@H](c2nc(-c3ccc4ccc(-c5ccccc5)nc4c3)c3c(N)nccn32)C1 [OSI-906 (Linsitinib)],0.110,−0.806,−1.882,−1.996,0.013 log2 fold change,−0.093 log2 fold change,−0.216 log2 fold change,−0.229 log2 fold change,−0.026 log2 fold change,−0.119 log2 fold change,−0.288 log2 fold change,−0.328 log2 fold change,−0.775,−0.377,−0.661,−0.934,−0.324 log2 fold change,−0.158 log2 fold change,−0.277 log2 fold change,−0.391 log2 fold change

# From US20220323406A1, “METHODS AND COMPOSITIONS FOR DIFFERENTIATING STEM CELLS” (Massachusetts Institute of Technology, priority 2019, published 2022)
